{
  "source": "patent US8563254B2",
  "about": "“Biomarkers of tumor pharmacodynamic response” (Novartis AG, priority 2009, dated 2013)",
  "type_in_all_cases": "cell-based, human",
  "key": {"GTL-16 cells [1]": {"test_system": "GTL-16 cells", "assay": "Multiplexed bead-based 27-plex cytokine panel, GTL-16 culture supernatants", "details": "48 hr", "method": "(§1) A malignant melanoma cell line A375 (American Type Culture Collection, Manassas, Va., USA) and gastric cancer cell line, GTL-16 (Prof Silvia Giordano, Institute for Cancer Research and Treatment, Turin, Italy) were cultured in RPMI 1640 supplemented with 10% FBS and 1% penicillin-streptomycin at 37° C. in 5% CO2 (GIBCO reagents, Invitrogen Corporation, Carlsbad, Calif., USA). Cell numbers were determined by ViCell™ XR Cell Viability Analyzer 2.03 (Beckman Coulter, Inc., Fullerton, Calif., USA). Cells were seeded in poly-D-lysine coated plates (BIOCOAT Cell Environments, Becton Dickinson Biosciences, San Jose, Calif., USA).\n(§2) Human IL-8 levels in cell culture supernatants treated with NVP-AUY922 were initially assessed as part of a multiplexed bead-based cytokine panel (hu 27-plex panel I, Bio-rad Laboratories, Hercules, Calif., USA) with a BioPlex Suspension Array System (Bio-rad). Human IL-8 and mouse KC levels in serum derived from GTL-16 and A375 tumor-bearing mice treated with NVP-AUY922 were measured by single-plex cytokine bead-based assay (Milliplex, Millipore, Billerica, Mass., USA). The BioPlex system uses a liquid suspension array of beads. The beads align in a single file through a flow cell to the detector, where a red classification laser at a wavelength of 635 nm and a green reporter laser at a wavelength of 532 nm are used to identify each bead's spectral address and associated reporter signal, respectively.\n(§3) In a screen for candidate secreted markers of Hsp90 inhibition, cell culture supernatants were collected from GTL-16 gastric carcinoma and A375 melanoma cells that were washed and treated for 48 hr with 1 μM NVP-AUY922 in fresh culture medium. These samples were analyzed by a multiplexed cytokine bead-based assay that included a panel of 27 human cytokines, the results of which are shown in FIG. 1. […] In addition to this empirical investigation using the bead-based immunoassay panel, in silica data mining was undertaken to identify secreted proteins that were regulated by previously reported Hsp90 client proteins; this investigation pointed to a number of candidates, including IL-8, consistent with the empirical results."}, "A375 cells": {"test_system": "A375 cells", "assay": "Multiplexed bead-based 27-plex cytokine panel, A375 culture supernatants", "details": "48 hr", "method": "as §1, §2, §3"}, "GTL-16 cells [2]": {"test_system": "GTL-16 cells", "assay": "Quantitative RT-PCR of IL-8 mRNA, GTL-16", "details": "GTL-16, 0.3 μM, 16 hr, treated versus untreated", "method": "Total cellular RNA was extracted from the GTL-16 and A375 cell lines using RNeasy mini kit (Qiagen, Inc., Valencia, Calif., USA). Total RNA quantitation was carried out using a RiboGreen assay (Invitrogen Corporation, Carlsbad, Calif., USA). 1 μg of total RNA was reverse transcribed using AMV reverse transcriptase (Reverse Transcription Kit, Promega U.S., Madison, Wis., USA). A 20 μl reaction cocktail was prepared as follows; 1 μg total RNA in 10 μl of RNase, DNase-free H2O, 4 μl of 25 mM MgCl2, 2 μl of 10× reverse transcriptase buffer, 2 μl of 10 mM dNTP's, 1 μl of 500 μg ml^−1 random hexamers, 1.5 μl of 10 μl ml^−1, and 40 U μl^−1 0.5 μl of recombinant RNase Inhibitor. Real time PCR was performed using a 7900HT fast real-time PCR system (Applied Biosystems, Foster City, Calif., USA) using the Power SYBR Green PCR master mix (Applied Biosystems). The primers for IL-8 and GAPDH were: IL-8 sense: 5′-[…]-3′ (SEQ ID NO:3) and IL-8 antisense:\n5′-[…]-3′ (SEQ ID NO:4); and GAPDH sense:\n5′-[…]-3′ (SEQ ID NO:5), and GAPDH antisense;\n5′-[…]-3′. (SEQ ID NO:6) The amplification process involved an initial 5 min denaturing step at 95° C. This was followed by annealing reactions for both IL-8 and GAPDH, of 45 s at 95° C. with 230 s at 68° C. for 34 cycles and 1 min at 95° C. with 1 min at 60° C. and 1 min 72° C. for 30 cycles, respectively. The final extension was 10 min at 72° C. […]"}},
  "data": [
    {"molecule": "CCNC(=O)c1noc(-c2cc(C(C)C)c(O)cc2O)c1-c1ccc(CN2CCOCC2)cc1", "note": "[NVP-AUY922, 5-(2,4-Dihydroxy-5-isopropyl-phenyl)-4-(4-morhpolin-4-ylmethyl-phenyl)-isoxazole-3-carboxylic acid ethylamide]", "values": [
      {"measurement": "accumulation of FGF basic and MIP-1b", "setting": "GTL-16 cells [1]; GTL-16, 1 μM", "result": "virtually unchanged"},
      {"measurement": "accumulation of IL-1ra, IL-8, IL-17, Eotaxin, GM-CSF, IP-10, PDGF-bb and VEGF", "setting": "GTL-16 cells [1]; GTL-16, 1 μM", "result": "decreased accumulation"},
      {"measurement": "accumulation of IL-15", "setting": "GTL-16 cells [1]; GTL-16, 1 μM", "result": "increased accumulation"},
      {"measurement": "IL-8 accumulation decreased", "setting": "GTL-16 cells [1]; GTL-16 culture supernatant, 1 μM, multiplexed assay", "result": "more than 80%"},
      {"measurement": "IL-2 levels", "setting": "A375 cells; A375, 1 μM", "result": "increased"},
      {"measurement": "accumulation of IL-1ra, IL-8, MCP-1 (MCAF) and VEGF", "setting": "A375 cells; A375, 1 μM", "result": "decreased accumulation"},
      {"measurement": "accumulation of other detectable cytokines", "setting": "A375 cells; A375, 1 μM", "result": "remained unchanged"},
      {"measurement": "IL-8 accumulation decreased", "setting": "A375 cells; A375 culture supernatant, 1 μM, multiplexed assay", "result": "> 70", "unit": "%"},
      {"measurement": "decrease in IL-8 mRNA expression", "setting": "GTL-16 cells [2]", "result": 85, "unit": "%"}
    ]}
  ]
}
